Data reported in patent US12447153B2, “HER2 mutation inhibitors” (Array BioPharma Inc., priority 2021, dated 2025).

Experiments:
[1] = molecular target: ErbB2 WT (Homo sapiens (Human), UniProt P04626); experiment: ErbB Enzyme Assay (HTRF KinEASE-TK), Assay 2; assay type: biochemical
[2] = molecular target: BCRP (Homo sapiens (Human), UniProt Q9UNQ0); experiment: BCRP MDCKII efflux assay (Assay 7); assay type: in vitro ADME; details: dog; efflux ratio Papp(B-A)/Papp(A-B), BCRP MDCKII cells; read-out: Assay 7 Pe Ratio
Sequence of BCRP (Q9UNQ0 whole entry): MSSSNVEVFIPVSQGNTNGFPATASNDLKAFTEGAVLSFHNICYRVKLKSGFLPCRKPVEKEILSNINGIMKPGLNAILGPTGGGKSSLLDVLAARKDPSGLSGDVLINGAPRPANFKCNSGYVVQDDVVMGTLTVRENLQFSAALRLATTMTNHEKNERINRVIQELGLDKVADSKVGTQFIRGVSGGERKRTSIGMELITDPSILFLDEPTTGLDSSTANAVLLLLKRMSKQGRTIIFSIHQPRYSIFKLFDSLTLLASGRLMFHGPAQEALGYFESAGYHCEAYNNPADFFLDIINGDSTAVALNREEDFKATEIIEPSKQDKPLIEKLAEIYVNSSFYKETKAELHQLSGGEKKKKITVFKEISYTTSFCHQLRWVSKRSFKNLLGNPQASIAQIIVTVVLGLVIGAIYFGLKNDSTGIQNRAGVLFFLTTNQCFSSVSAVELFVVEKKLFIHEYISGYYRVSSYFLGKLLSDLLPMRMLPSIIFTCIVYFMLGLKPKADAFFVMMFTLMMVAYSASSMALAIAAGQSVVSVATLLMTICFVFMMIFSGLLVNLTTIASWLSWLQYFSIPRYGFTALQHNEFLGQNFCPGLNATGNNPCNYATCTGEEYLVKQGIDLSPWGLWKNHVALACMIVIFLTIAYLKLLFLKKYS
Description: Assay conditions included with and without the BCRP-specific inhibitor, KO143, at a concentration of 0.3 μM to ascertain the contribution of BCRP to the efflux value of the test compound.
Final organic concentration in the assay was 1%.

[3] = molecular target: EGFR wild type (EGFR WT) (Homo sapiens (Human), UniProt P00533); experiment: Cellular Phosphorylation Assay, Assay 5 (EGF-stimulated EGFR phosphorylation, NIH 3T3 cells); assay type: cell-based
Sequence of EGFR wild type (EGFR WT) (P00533 25-1210): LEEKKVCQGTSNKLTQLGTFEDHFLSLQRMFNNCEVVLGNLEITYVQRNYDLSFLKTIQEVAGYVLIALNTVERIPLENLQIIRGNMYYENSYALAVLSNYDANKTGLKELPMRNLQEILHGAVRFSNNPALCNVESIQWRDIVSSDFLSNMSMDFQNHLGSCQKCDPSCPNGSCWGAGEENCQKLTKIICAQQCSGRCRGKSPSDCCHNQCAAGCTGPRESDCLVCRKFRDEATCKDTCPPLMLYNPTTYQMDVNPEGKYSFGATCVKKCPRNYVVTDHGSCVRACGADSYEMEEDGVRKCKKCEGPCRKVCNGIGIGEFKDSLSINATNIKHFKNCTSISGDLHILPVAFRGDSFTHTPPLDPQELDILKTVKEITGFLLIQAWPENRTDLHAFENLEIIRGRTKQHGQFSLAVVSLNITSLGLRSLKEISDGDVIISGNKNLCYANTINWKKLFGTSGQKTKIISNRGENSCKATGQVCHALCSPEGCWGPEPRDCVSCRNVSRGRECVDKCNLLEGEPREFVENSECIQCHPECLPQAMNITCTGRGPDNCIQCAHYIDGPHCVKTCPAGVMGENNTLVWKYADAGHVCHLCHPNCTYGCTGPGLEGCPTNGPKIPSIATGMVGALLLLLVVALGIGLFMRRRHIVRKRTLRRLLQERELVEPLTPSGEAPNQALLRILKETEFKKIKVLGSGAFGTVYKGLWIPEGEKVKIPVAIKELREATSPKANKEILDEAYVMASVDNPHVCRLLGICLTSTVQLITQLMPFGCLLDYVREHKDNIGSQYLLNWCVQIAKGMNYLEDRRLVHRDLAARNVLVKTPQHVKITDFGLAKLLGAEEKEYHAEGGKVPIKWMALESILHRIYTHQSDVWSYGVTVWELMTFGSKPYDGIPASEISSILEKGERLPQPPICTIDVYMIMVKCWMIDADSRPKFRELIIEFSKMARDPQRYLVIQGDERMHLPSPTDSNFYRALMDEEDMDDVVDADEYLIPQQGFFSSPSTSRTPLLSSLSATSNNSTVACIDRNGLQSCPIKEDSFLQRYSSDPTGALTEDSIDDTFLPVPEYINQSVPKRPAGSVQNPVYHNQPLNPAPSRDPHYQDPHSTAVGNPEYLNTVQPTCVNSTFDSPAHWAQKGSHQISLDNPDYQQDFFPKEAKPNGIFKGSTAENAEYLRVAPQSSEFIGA

[4] = molecular target: ErbB2 with Exon 20 YVMA insertion (HER2-YVMA) (Homo sapiens (Human), UniProt P04626, INS775YVMA); experiment: Cellular Phosphorylation Assay, Assay 4 (constitutive ErbB2 phosphorylation, NIH 3T3 cells); assay type: cell-based
Sequence of ErbB2 with Exon 20 YVMA insertion (HER2-YVMA) (P04626 other isoform, or with tags, fused parts or gaps ins YVMA behind 775): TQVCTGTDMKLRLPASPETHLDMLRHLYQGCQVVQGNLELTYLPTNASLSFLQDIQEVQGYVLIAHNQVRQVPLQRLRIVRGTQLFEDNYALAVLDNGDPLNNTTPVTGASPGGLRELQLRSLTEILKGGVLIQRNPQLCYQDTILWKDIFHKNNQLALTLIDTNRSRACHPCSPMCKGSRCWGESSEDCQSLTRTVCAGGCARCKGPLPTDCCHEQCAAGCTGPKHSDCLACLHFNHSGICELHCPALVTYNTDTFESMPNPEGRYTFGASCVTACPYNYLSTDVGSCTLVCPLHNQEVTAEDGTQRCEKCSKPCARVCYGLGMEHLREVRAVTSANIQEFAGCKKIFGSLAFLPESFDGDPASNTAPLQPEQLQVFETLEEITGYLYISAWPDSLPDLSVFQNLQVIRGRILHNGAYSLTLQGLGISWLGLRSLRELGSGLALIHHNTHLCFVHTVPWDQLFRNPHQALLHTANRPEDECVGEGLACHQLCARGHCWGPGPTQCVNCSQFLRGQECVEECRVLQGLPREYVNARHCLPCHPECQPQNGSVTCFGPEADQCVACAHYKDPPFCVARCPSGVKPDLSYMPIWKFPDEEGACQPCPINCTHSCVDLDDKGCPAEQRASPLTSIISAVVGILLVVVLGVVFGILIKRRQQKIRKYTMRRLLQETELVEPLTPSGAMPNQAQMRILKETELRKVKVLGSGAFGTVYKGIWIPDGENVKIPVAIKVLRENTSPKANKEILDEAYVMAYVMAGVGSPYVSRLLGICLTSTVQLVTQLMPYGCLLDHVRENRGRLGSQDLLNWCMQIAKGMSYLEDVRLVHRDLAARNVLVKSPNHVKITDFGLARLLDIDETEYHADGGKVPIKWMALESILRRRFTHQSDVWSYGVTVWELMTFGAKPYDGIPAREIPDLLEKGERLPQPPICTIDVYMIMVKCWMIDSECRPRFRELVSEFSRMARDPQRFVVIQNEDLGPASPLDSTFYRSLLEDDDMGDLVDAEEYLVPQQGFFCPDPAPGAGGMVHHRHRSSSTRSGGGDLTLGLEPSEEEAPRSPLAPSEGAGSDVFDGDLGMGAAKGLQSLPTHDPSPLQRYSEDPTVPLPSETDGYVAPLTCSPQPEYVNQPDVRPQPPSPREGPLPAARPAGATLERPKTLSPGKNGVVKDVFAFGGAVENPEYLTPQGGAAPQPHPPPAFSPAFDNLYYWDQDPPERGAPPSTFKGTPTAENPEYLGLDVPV

[5] = molecular target: EGFR (Homo sapiens (Human), UniProt P00533); experiment: ErbB Enzyme Assay (HTRF KinEASE-TK), Assay 3; assay type: biochemical
[6] = molecular target: MDR1 (P-gp) (Homo sapiens (Human), UniProt P08183); experiment: in vitro; details: pig, LLC-PK1
[7] = EGF-stimulated EGFR WT phosphorylation

Sequence of ErbB2 WT (P04626 23-1255): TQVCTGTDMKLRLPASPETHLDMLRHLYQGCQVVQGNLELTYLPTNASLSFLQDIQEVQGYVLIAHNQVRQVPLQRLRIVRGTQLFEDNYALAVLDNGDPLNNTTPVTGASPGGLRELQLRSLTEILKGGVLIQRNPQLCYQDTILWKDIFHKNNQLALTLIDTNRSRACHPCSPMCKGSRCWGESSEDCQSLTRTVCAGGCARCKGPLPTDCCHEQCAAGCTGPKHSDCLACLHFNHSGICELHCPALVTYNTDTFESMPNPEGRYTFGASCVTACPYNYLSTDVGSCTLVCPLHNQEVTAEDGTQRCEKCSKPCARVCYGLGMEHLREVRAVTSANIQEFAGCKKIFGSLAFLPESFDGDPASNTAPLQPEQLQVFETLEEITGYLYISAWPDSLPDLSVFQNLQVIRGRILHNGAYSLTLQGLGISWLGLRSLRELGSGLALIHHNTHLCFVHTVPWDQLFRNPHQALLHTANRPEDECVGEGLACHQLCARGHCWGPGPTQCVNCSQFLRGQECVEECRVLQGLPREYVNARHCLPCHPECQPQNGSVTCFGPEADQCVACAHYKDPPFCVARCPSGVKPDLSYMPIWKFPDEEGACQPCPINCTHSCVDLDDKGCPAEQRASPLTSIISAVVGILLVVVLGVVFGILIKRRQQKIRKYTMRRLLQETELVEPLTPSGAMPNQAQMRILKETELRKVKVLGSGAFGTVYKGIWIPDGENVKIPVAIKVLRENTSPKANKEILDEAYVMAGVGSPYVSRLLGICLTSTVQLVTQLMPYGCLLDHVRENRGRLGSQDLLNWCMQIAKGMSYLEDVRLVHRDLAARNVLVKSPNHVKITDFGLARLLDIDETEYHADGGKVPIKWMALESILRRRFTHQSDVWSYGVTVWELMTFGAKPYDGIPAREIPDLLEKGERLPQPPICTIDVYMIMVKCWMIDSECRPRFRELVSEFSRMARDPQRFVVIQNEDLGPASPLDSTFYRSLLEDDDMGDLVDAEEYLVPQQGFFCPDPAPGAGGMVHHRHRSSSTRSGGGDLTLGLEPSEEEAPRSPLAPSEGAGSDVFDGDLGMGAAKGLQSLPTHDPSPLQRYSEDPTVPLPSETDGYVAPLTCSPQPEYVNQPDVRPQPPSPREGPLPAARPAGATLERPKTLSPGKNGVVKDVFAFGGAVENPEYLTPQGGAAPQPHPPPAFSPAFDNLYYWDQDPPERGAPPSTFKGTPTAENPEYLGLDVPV

SMILES	IC50 ([1]; ErbB2 WT enzyme) [nM]	efflux ratio at 2 h, 1 µM [2]	IC50 [3, 7] [nM]	IC50 ([4]; ErbB2 YVMA phosphorylation) [nM]	IC50 ([5]; EGFR enzyme) [nM]	efflux ratio at 2 h, 1 µM [6]	IC50 ([1]; ErbB2 WT enzyme assay) [nM]	IC50 ([3]; cellular EGFR WT phosphorylation, EGF-stimulated) [nM]	IC50 ([4]; cellular ErbB2 YVMA phosphorylation) [nM]	IC50 ([5]; EGFR enzyme assay) [nM]
C=CC(=O)N1[C@@H]2CC[C@H]1CC(c1ccc3ncnc(Nc4ccc(Oc5ccc6c(c5)ncn6C)c(C)c4F)c3n1)C2 (mixture of isomers) [Example 143, rac-1-((1R,5S)-3-(4-((2-fluoro-3-methyl-4-((1-methyl-1H-benzo[d]imidazol-5-yl)oxy)phenyl)amino)pyrido[3,2-d]pyrimidin-6-yl)-8-azabicyclo[3.2.1]octan-8-yl)prop-2-en-1-one]	32.7	3	2940	20.9	1850	1.7				
C=CC(=O)N1CCCC[C@@H](c2ccc3ncnc(Nc4ccc(Oc5ccc6c(c5)ncn6C)c(C)c4F)c3n2)C1 (racemic) [Example 145, rac-(R)-1-(3-(4-((2-fluoro-3-methyl-4-((1-methyl-1H-benzo[d]imidazol-5-yl)oxy)phenyl)amino)pyrido[3,2-d]pyrimidin-6-yl)azepan-1-yl)prop-2-en-1-one]	5.9	1.4	582	15.3	410	6.4				
C=CC(=O)N1CCC[C@@H](c2ccc3ncnc(Nc4ccc(Oc5ccc6c(c5)ncn6C)c(C)c4F)c3n2)CC1 (racemic) [Example 147, rac-(R)-1-(4-(4-((2-fluoro-3-methy-4-((1-methyl-1H-benzo[d]imidazol-5-yl)oxy)phenyl)amino)pyrido[3,2-d]pyrimidin-6-yl)azepan-1-yl)prop-2-en-1-one]	18.6	2.3	2590	23	782	2.9				
C=CC(=O)N1C[C@@H]2C[C@H]1C[C@H]2c1ccc2ncnc(Nc3ccc(Oc4ccn5ncnc5c4)c(C)c3F)c2n1 (racemic) [Example 199, rac-1-((1 S,4R,5R)-5-(4-((4-([1,2,4]triazolo[1,5-a]pyridin-7-yloxy)-2-fluoro-3-methylphenyl)amino)pyrido[3,2-d]pyrimidin-6-yl)-2-azabicyclo[2.2.1]heptan-2-yl)prop-2-en-1-one]	17.4	3.2	942	22.3	483	0.6				
C=CC(=O)N1C[C@H]2C[C@@H]1[C@H](c1ccc3ncnc(Nc4ccc(Oc5ccc6c(c5)ncn6C)c(C)c4F)c3n1)C2 (racemic) [Example 202, rac-1-((1R,4R,6R)-6-(4-((2-fluoro-3-methyl-4-((1-methyl-1H-benzo[d]imidazol-5-yl)oxy)phenyl)amino)pyrido[3,2-d]pyrimidin-6-yl)-2-azabicyclo[2.2.1]heptan-2-yl)prop-2-en-1-one]	15.5	2.8	4220	20.6	550	1.2				
C=CC(=O)N1CC[C@H]2C[C@H](c3ccc4ncnc(Nc5cc(C)c(Oc6ccn7ncnc7c6)cc5F)c4n3)C[C@H]21 (racemic) [Example 205, rac-1-((3aR,5S,6aR)-5-(4-((4-([1,2,4]triazolo[1,5-a]pyridin-7-yloxy)-2-fluoro-5-methylphenyl)amino)pyrido[3,2-d]pyrimidin-6-yl)hexahydrocyclopenta[b]pyrrol-1(2H)-yl)prop-2-en-1-one]	58.7	4.5	2560	24	2420	1.2				
C=CC(=O)N1[C@@H]2CC[C@H]1[C@H](c1ccc3ncnc(Nc4ccc(Oc5ccn6ncnc6c5)c(C)c4F)c3n1)C2 (racemic) [Example 213, rac-1-((1 S,2R,4R)-2-(4-((4-([1,2,4]triazolo[1,5-a]pyridin-7-yloxy)-2-fluoro-3-methylphenyl)amino)pyrido[3,2-d]pyrimidin-6-yl)-7-azabicyclo[2.2.1]heptan-7-yl)prop-2-en-1-one]	7.3	3.4	≥ 5000	23.9	264	1.5				
C=CC(=O)N1C[C@H]2CC[C@@H]1C[C@@H]2c1ccc2ncnc(Nc3ccc(Oc4ccn5ncnc5c4)c(C)c3F)c2n1 (racemic) [Example 217, rac-1-((1R,4S,5S)-5-(4-((4-([1,2,4]triazolo[1,5-a]pyridin-7-yloxy)-2-fluoro-3-methylphenyl)amino)pyrido[3,2-d]pyrimidin-6-yl)-2-azabicyclo[2.2.2]octan-2-yl)prop-2-en-1-one]	18.8	1.9	1850	11.1	1460	0.8				
C=CC(=O)N1C[C@H]2CC[C@@H]1C[C@H]2c1ccc2ncnc(Nc3ccc(Oc4ccn5ncnc5c4)c(C)c3F)c2n1 (racemic) [Example 218, rac-1-((1R,4S,5R)-5-(4-((4-([1,2,4]triazolo[1,5-a]pyridin-7-yloxy)-2-fluoro-3-methylphenyl)amino)pyrido[3,2-d]pyrimidin-6-yl)-2-azabicyclo[2.2.2]octan-2-yl)prop-2-en-1-one]	24.4	2.6	≥ 5000	32.7	1420	1.4				
C=CC(=O)N1[C@@H]2CC[C@H]1[C@H](c1ccc3ncnc(Nc4ccc(Oc5ccn6ncnc6c5)c(C)c4)c3n1)C2 (racemic) [Example 220, rac-1-((1 S,2R,4R)-2-(4-((4-([1,2,4]triazolo[1,5-a]pyridin-7-yloxy)-3-methylphenyl)amino)pyrido[3,2-d]pyrimidin-6-yl)-7-azabicyclo[2.2.1]heptan-7-yl)prop-2-en-1-one]	17.9	2.2	≥ 5000	18.5	412	1.3				
C=CC(=O)N1C[C@H](c2ccc3ncnc(Nc4ccc(Oc5ccn6ncnc6c5)c(C)c4F)c3n2)C[C@@H]1C1CC1 (racemic) [Example 302]		3.5				1.3	8.2	1450	17.4	712
C=CC(=O)N1CC[C@@H](c2ccc3ncnc(Nc4ccc(Oc5ccn6ncnc6c5)c(C)c4F)c3n2)CC12CC2 (single isomer, unassigned) [Example 173]	105	3	2310	21	≥ 10000	0.7				
C=CC(=O)N1CC[C@@H]2C[C@H](c3ccc4ncnc(Nc5cc(C)c(Oc6ccn7ncnc7c6)cc5F)c4n3)C[C@@H]21 (single isomer, unassigned) [Example 225]	26.5	2	768	8.4	422	1.2				
C=CC(=O)N1[C@@H]2CC[C@H]1[C@H](c1ccc3ncnc(Nc4ccc(Oc5ccn6ncnc6c5)c(C)c4F)c3n1)C2 (single isomer, unassigned) [Example 228]	130	3.3	≥ 5000	33.6	4550	0.8				
C=CC(=O)N1[C@H]2CC[C@@H]1[C@@H](c1ccc3ncnc(Nc4ccc(Oc5ccn6ncnc6c5)c(C)c4F)c3n1)C2 (single isomer, unassigned) [Example 229]	16.7	3	≥ 5000	29.9	380	0.7				
C=CC(=O)N1[C@@H]2CC[C@H]1C(c1ccc3ncnc(Nc4ccc(Oc5ccn6ncnc6c5)c(C)c4)c3n1)C2 (single isomer, unassigned) [Example 232]	10.5	2.6	≥ 5000	31.9	203	0.8				
C=CC(=O)N1CCC(Oc2ccc3ncnc(Nc4ccc(Oc5ccn6ncnc6c5)c(C)c4)c3n2)CC1 [Example 1, 1-(4-((4-((4-([1,2,4]triazolo[1,5-a]pyridin-7-yloxy)-3-methylphenyl)amino)pyrido[3,2-d]pyrimidin-6-yl)oxy)piperidin-1-yl)prop-2-en-1-one]	33.6	7.3	1010	12.5	4430	11.4				
C=CC(=O)N1CCC(Oc2ccc3ncnc(Nc4ccc(Oc5ccc6cn(C)nc6c5)c(C)c4)c3n2)CC1 [Example 3, 1-(4-((4-((3-methyl-4-((2-methyl-2H-indazol-6-yl)oxy)phenyl)amino)pyrido[3,2-d]pyrimidin-6-yl)oxy)piperidin-1-yl)prop-2-en-1-one]	260	1.5	≥ 5000	60.6	≥ 10000	2				
C=CC(=O)N1CCC(Oc2ccc3ncnc(Nc4ccc(Oc5ccc6cn(C)nc6c5)c(C)c4F)c3n2)CC1 [Example 6, 1-(4-((4-((2-fluoro-3-methyl-4-((2-methyl-2H-indazol-6-yl)oxy)phenyl)amino)pyrido[3,2-d]pyrimidin-6-yl)oxy)piperidin-1-yl)prop-2-en-1-one]	3300	2.5	2920	54.2	≥ 10000	1.3				
